Test results taken from paper PMC6832265 (Molecules, 2019).

Key:
[1] = target: T1, Tdp1 (Homo sapiens, UniProt Q9NUW8); assay: Real-time detection of Tdp1 activity (5'-FAM/3'-BHQ1 oligonucleotide biosensor); assay type: biochemical; conditions: 1.5 nM Tdp1, 50 nM oligonucleotide substrate, 26 °C
T1 construct: made in house; host or cells: Escherichia coli
Description: We first studied the inhibition potency of our compounds to Tdp1 by using a real-time oligonucleotide biosensor assay that we have previously developed. The assay was based on the ability of Tdp1 to remove the fluorescence quencher from the 3’-end of DNA. The substrate is a 16-mer single-stranded oligonucleotide containing both a 5’-FAM fluorophore and a 3’-BHQ1 quencher.
A fluorophore quencher-coupled DNA-biosensor for real-time measurement of Tdp1 cleavage activity was recently designed in our laboratory. The biosensor is a 16-mer single-stranded oligonucleotide containing both a 5’-FAM fluorophore donor and a quenching 3’-BHQ1 moiety.
Recombinant protein Tdp1 was expressed in EsCherichia coli (pET 16B plasmid containing Tdp1 cDNA provided by Dr. K.W. Caldecott, University of Sussex, United Kingdom) and isolated as described. The reaction mixture in a final volume 200 μL contained Tdp1 reaction buffer (50 mM Tris-HCl, 50 mM NaCl, 7 mM β-mercaptoethanol), 50 nM oligonucleotide substrate, and varied concentrations of potential inhibitor. Purified Tdp1 was added in a final concentration of 1.5 nM.
The reaction mixtures were incubated at a constant temperature of 26 °C in a POLARstar OPTIMA fluorimeter, BMG LABTECH, GmbH, to measure fluorescence intensity every minute (Ex485/Em520 nm). Tdp1 inhibition was calculated by comparing the rate of increase in fluorescence of the biosensor in the presence of the compound to that of DMSO (1.5%) control wells. The measurements were carried out in at least two independent experiments. IC50 values were determined using a six-point concentration response curve. The data were imported into the MARS Data Analysis 2.0 program (BMG LABTECH) and the slope during the linear phase (data from 0 to 7 min) was calculated.

[2] = target: T2, recombinant Tdp1 (residues 149–608) (Homo sapiens, UniProt Q9NUW8); assay: Intrinsic tryptophan fluorescence quenching binding assay; conditions: 10 µM Tdp1, 20 mM Tris, 250 mM NaCl, pH 8; triplicate
T2 construct: recombinant Tdp1 (residues 149–608) was obtained from GenScript; host or cells: E. coli BL21(DE3)
Procedure: The binding of the synthesized compounds to recombinant Tdp1 was also tested (Table 1 and Table 2) by using an intrinsic tryptophan fluorescence quenching assay. […] As our compounds are aromatic in nature, there is a possibility that they may bind to both the active site as well as non-specifically to the DNA/peptide binding pockets. Nonetheless, our results confirmed that the compounds were indeed binders of Tdp1, thus complementing our inhibition data.
pET-28a(+) plasmid encoding recombinant Tdp1 (residues 149–608) was obtained from GenScript. E. coli BL21(DE3) was used for recombinant protein production. Protein production was induced with 1 mM IPTG at 28 °C with overnight incubation. Tdp1 was purified using affinity and size exclusion chromatography. Fluorescence was measured using a PerkinElmer EnSpire Multimode Reader. Tdp1 concentration was 10 μM with varying compound concentrations. The buffer was 20 mM Tris and 250 mM NaCl (pH 8). The excitation wavelength was 280 nm and intrinsic fluorescence was measured at 350 nm. Control experiments with Tdp1 or the compound on its own were also conducted. Background fluorescence arising from the compounds was subtracted from the final spectrum. The total volume per well was 30 μL. The dissociation constant (KD) was calculated using Equation (1), which takes non-specific binding into account. y = Bmaxx/(KD + x) + Nsx(1) where y denotes the changes in fluorescence intensity; x denotes the concentration of the compounds; Bmax denotes the maximum changes in fluorescence intensity; and Ns is a scaling factor for non-specific binding. Experiments were conducted in triplicate.

T1 sequence (Q9NUW8 whole entry): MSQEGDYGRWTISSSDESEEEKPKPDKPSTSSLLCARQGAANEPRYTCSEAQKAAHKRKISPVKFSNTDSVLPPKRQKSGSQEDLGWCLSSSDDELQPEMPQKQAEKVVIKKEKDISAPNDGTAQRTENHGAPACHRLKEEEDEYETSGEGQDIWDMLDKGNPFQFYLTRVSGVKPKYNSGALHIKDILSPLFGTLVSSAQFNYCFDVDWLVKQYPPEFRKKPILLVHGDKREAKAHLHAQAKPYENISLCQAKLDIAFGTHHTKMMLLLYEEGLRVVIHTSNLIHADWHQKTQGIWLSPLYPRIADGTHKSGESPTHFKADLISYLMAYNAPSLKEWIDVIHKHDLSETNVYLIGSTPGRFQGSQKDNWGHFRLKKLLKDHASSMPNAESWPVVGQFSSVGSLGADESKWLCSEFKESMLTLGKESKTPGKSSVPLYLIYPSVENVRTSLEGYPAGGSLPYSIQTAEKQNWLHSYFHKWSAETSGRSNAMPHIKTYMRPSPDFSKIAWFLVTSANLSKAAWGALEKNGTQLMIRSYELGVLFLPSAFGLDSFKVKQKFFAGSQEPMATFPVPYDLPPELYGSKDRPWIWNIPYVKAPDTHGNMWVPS
T2 sequence (Q9NUW8 149-608): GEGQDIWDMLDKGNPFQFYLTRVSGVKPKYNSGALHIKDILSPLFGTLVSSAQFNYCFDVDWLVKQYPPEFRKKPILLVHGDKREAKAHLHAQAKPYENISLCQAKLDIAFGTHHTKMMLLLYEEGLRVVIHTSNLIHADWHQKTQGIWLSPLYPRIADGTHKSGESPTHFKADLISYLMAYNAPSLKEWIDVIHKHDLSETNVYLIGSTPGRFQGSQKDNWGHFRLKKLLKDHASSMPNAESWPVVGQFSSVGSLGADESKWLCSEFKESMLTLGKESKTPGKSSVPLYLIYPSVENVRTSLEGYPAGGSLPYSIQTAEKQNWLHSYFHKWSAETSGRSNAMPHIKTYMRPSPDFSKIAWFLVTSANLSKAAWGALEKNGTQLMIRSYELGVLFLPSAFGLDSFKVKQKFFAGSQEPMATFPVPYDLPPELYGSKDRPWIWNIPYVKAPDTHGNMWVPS

Compound	IC50 [1]	Kd [2]
CC(=O)C1=C(O)C=C2Oc3c(-c4csc(N/N=C/c5cnc[nH]5)n4)c(O)c(C)c(O)c3[C@@]2(C)C1=O [(+)-16o, 5-[(1E)-(2-{4-[(1R)-12-Acetyl-3,5,11-trihydroxy-1,4-dimethyl-13-oxo-8-oxatricyclo[7.4.0.0^2,7]trideca-2(7),3,5,9,11-pentaen-6-yl]-1,3-thiazol-2-yl}hydrazin-1-ylidene)methyl]-1H-imidazol-1-ium bromide]	1.69 ± 0.89 µM	38 ± 2 µM
CC(=O)C1=C(O)C=C2Oc3c(-c4csc(N/N=C/c5c[nH]c6ccccc56)n4)c(O)c(C)c(O)c3[C@@]2(C)C1=O [(+)-16p, (2R)-4-Acetyl-5,11,13-trihydroxy-2,12-dimethyl-10-{2-[(E)-2-[(1H-indole-3-yl)methylidene] hydrazin-1-yl]-1,3-thiazol-4-yl}-8-oxatricyclo[7.4.0.0^2,7]trideca-1(9),4,6,10,12-pentaen-3-one]	0.138 ± 0.003 µM	268 ± 11 µM
(2S)-4-Acetyl-5,11,13-trihydroxy-2,12-dimethyl-10-{2-[(E)-2-[(thiophen-3-yl)methylidene] hydrazin-1-yl]-1,3-thiazol-4-yl}-8-oxatricyclo[7.4.0.0^2,7]trideca-1(9),4,6,10,12-pentaen-3-one amine [(−)-16j]	0.04 ± 0.003 µM	771 ± 46 µM
CC(=O)C1=C(O)C=C2Oc3c(-c4csc(N/N=C/c5ccoc5)n4)c(O)c(C)c(O)c3[C@]2(C)C1=O [(−)-16l, (2S)-4-Acetyl-5,11,13-trihydroxy-2,12-dimethyl-10-{2-[(E)-2-[(furan-3-yl)methylidene] hydrazin-1-yl]-1,3-thiazol-4-yl}-8-oxatricyclo[7.4.0.0^2,7]trideca-1(9),4,6,10,12-pentaen-3-one]	0.178 ± 0.004 µM	233 ± 9 µM
CC(=O)C1=C(O)C=C2Oc3c(-c4csc(N/N=C/c5ccco5)n4)c(O)c(C)c(O)c3[C@]2(C)C1=O [(−)-16k, (2S)-4-Acetyl-5,11,13-trihydroxy-2,12-dimethyl-10-{2-[(E)-2-[(furan-2-yl)methylidene] hydrazin-1-yl]-1,3-thiazol-4-yl}-8-oxatricyclo[7.4.0.0^2,7]trideca-1(9),4,6,10,12-pentaen-3-one]	0.046 ± 0.024 µM	250 ± 24 µM
(2R)-4-Acetyl-5,11,13-trihydroxy-2,12-dimethyl-10-{2-[(E)-2-[(thiophen-3-yl)methylidene] hydrazin-1-yl]-1,3-thiazol-4-yl}-8-oxatricyclo[7.4.0.0^2,7]trideca-1(9),4,6,10,12-pentaen-3-one amine [(+)-16j]	0.107 ± 0.031 µM	65 ± 7 µM
CC(=O)C1=C(O)C=C2Oc3c(-c4csc(N/N=C/c5cccnc5)n4)c(O)c(C)c(O)c3[C@]2(C)C1=O [(−)-16c, 3-[(1E)-(2-{4-[(1S)-12-Acetyl-3,5,11-trihydroxy-1,4-dimethyl-13-oxo-8-oxatricyclo[7.4.0.0^2,7]trideca-2(7),3,5,9,11-pentaen-6-yl]-1,3-thiazol-2-yl}hydrazin-1-ylidene)methyl]pyridin-1-ium bromide]	0.154 ± 0.018 µM	262 ± 25 µM
(2S)-4-Acetyl-5,11,13-trihydroxy-2,12-dimethyl-10-{2-[(E)-2-[(1H-3-methyl-indole-3-yl) methylidene]hydrazin-1-yl]-1,3-thiazol-4-yl}-8-oxatricyclo[7.4.0.0^2,7]trideca-1(9),4,6,10,12-pentaen-3-one [(−)-16q]	0.081 ± 0.02 µM	58 ± 4 µM
COc1ccc(/C=N/Nc2nc(-c3c(O)c(C)c(O)c4c3OC3=CC(O)=C(C(C)=O)C(=O)[C@]34C)cs2)cc1COc1ccc(F)c(Cl)c1 [(−)-17d, (2S)-4-Acetyl-10-{2-[(E)-2-({3-[(3-chloro-4-fluorophenoxy)methyl]-4-methoxyphenyl}methylidene)hydrazin-1-yl]-1,3-thiazol-4-yl}-5,11,13-trihydroxy-2,12-dimethyl-8-oxatricyclo[7.4.0.0^2,7]trideca-1(9),4,6,10,12-pentaen-3-one]	0.018 ± 0.001 µM	76 ± 5 µM
